Results on three molecules are retold here after patent publication US20130136836A1, “Taste-Masking Compositions, Sweetener Compositions and Consumable Product Compositions Containing the Same” (Nutrinova Nutrition Specialties & Food Ingredients GmbH, priority 2011, published 2013).

In experiment [1] the test system is panel of trained sensory evaluators. The experiment is described as follows: Taste and spit assay, descriptive taste impression versus base samples, panel of 4 trained sensory evaluators (Examples 3 to 13). In kind it is in vivo, human. The following applies: for further effect added to the composition of the invention: benzaldehyde 0.02 wppm, below its threshold. As to the method: All tests were conducted under controlled and standardized conditions.
(§1) The samples were prepared by a trained laboratory assistant.
35 ml of the samples were served at room temperature in clear plastic cups.
The following samples comprising a composition of the invention were tested for their ability to improve the taste of artificial sweeteners.
All samples were tested in duplicate and evaluated at least 3 different concentrations in comparison to 3 base samples (samples 1 to 3).
The panelists were asked to evaluate and to describe the taste impression of the samples 4 to 13 containing a sweetener composition comprising acesulfame potassium, sucralose and a composition of the invention, e.g. bitter aftertaste, creaminess, fullness and character of the sweeteners in each case in comparison to the base samples 1 to 3.
The results of the taste and spit assay are based in each case on a qualitative evaluation of the differences between the samples.

Experiment [2] shares this test system. The experiment in a line: Taste and spit assay with regard to sweetness in the aftertaste, panel of 11 trained sensory evaluators (Example 2). In kind it is in vivo, human. The settings on record: 11 panelists; 35 ml at 6.0-8.0 °C; after 2 minutes; qualitative comparison of three samples; FIG. 2. As to the method:
Again the panelists are given samples.
Air was constantly exchanged.
as §1
The panel used the sweetness scale anchored by three concentrations of sucrose:
Sweetness was assessed with the 1st sip (max. 30 ml, min of 15 ml) and scored in the aftertaste (after 2 minutes).
All samples were tested in duplicate.

As to delta-undecalactone, the “taste impression of the lactone in the composition” value in experiment [1] (delta-undecalactone 0.0388 wppm in Sample 14, replacing massoia lactone, 4 panelists) is “not being too volatile and as adding a creamy taste, and as improving the total composition”.
`OC[C@H]1O[C@@](CO)(O[C@H]2O[C@H](CO)[C@@H](O)[C@H](O)[C@H]2O)[C@@H](O)[C@@H]1O` [saccharose]: the “sweetness in the aftertaste” value in experiment [2] is “less sweet in the aftertaste than acesulfame potassium and sucralose”.
With `O=Cc1ccccc1` [Benzaldehyde, benzaldehyde], the “further effect added to the composition of the invention” value is reported as “did not add any further effect” in experiment [1] (in sample 12 (with naringin, syringaldehyde, massoia lactone, whiskey lactone)) and “did not add any further effect” in experiment [1] (in sample 13 (with naringin, 4-methoxy salicylaldehyde, lactones, amino acids; sucralose 75 wppm)).
